In patent US20260144880A1 (priority 2018, published 2026):
Like-named read-outs stand apart in the source and are kept apart here.

Experiments:
in vitro = details: human
[1] = system: Neuraminidase transfected HEK 293 cells
[2] = system: 293NA cells (HEK 293 cells that express NA); type: cell-based
[3] = system: Neuraminidase transfected HEK 293 cells; type: binding
[4] = system: A/Aichi/2/1968 (HA, NA), x-31b (H3N2) virus; set-up: species or system mice; details: mouse, in vivo, ip
[5] = system: influenza virus A/Puerto Rico/8/1934 (H1N1); type: in vivo, BALB/c mice; details: DNP-KLH immunized mice, 1.5 μmol/kg intranasally one time a day for five days, 100 LD50
[6] = system: A/Aichi/2/1968 (HA, NA), x-31b (H3N2) virus; set-up: species or system mice; details: mouse, in vivo
A/Puerto Rico/8/34 = system: A/Puerto Rico/8/34; set-up: species or system mice; details: mouse, in vivo, ip

Molecule: CCCC(=O)OCN(C(=O)[C@@H](NC(=O)[C@H]1CCCCN1C)C(C)CC)[C@H](C[C@@H](OC(C)=O)c1nc(C(=O)N[C@@H](Cc2ccc(O)cc2)C[C@H](C)C(=O)NNC(=O)OCCSSC[C@H](NC(=O)[C@H](CC(=O)O)NC(=O)[C@@H](N)CNC(=O)CCC(=O)N2Cc3ccccc3-c3c(nnn3CCOCCOCCOCCNC(=O)O[C@@H]([C@@H]3OC(C(=O)O)=C[C@H](NC(=N)N)[C@H]3NC(C)=O)[C@H](O)CO)-c3ccccc32)C(=O)O)cs1)C(C)C (stereo partly drawn)
- EC50 (in vitro): 5.2 nM
- reduction of cytotoxicity by blocking neuraminidase binding sites [1]: > 30 fold

Molecule: CC(=O)N[C@H]1[C@H]([C@H](O)[C@H](O)CO)OC(C(=O)O)=C[C@@H]1N=C(N)N [zanamivir]
- % of killing (LDH) [2]: no killing
- Kd [3]: ~0.77 nM
- protection 14 days post infection [4]: does not provide the same protection
- survival (protection from lethal virus challenge) [5]: 60%
- protection 14 days post infection [6]: does not provide the same protection
- protection 14 days post infection (A/Puerto Rico/8/34): does not provide the same protection

Molecule: Tubulysin B hydrazide
- EC50 [1]: 9.9 nM
